Laboratory results taken from patent US20190365673A1, “Immunomodulatory Compounds” (Lankenau Institute for Medical Research, priority 2016, published 2019).

Key:
[1] = tested on: polyamine transport system (PTS); assay: Radiolabeled spermidine transport assay, human melanoma cell lines; assay type: cell-based; conditions: FIG. 8A, WM983B (BRAF V600E), 1 mM DFMO 40 h
Procedure: (§1) Polyamine transport in tumor cells was evaluated essentially as described (Kramer, et al. (1993) J. Cell Physiol., 155(2):399-407; Nilsson, et al. (2005) Cancer Cell 7(5):433-444). Radioactive spermidine (Net-522 Spermidine Trihydrochloride, [Terminal Methylenes-^3H(n)]) from Perkin Elmer was used (specific activity: 16.6 Ci/mmol). Cells were plated in 96 well plates and grown to approximately 80% confluence. Half of the cells were treated with 1 mM DFMO for 40 hours. After repeated washing with PBS, ^3H-spermidine was added at 1 μM and incubated for 60 minutes at 37° C. Cells were then washed with cold PBS containing 50 μM spermidine and lysed in 0.1% SDS at 37° C. for 30 minutes with mixing. Cell lysates were then aliquoted for scintillation counting and for protein assay using a mini-BioRad assay. Results were expressed as CPM/g protein.

[2] = tested on: polyamine transport system (PTS); assay: Radiolabeled spermidine transport assay, murine melanoma cells; assay type: cell-based
Procedure: (§2) FIG. 9A: Murine BRAF^V600E YUMM1.7 melanoma cells and BRAF^WT B16F10 melanoma cells were treated with increasing doses of AP. After 72 hours of culture, cell survival was determined via EZQuant™ Cell Quantifying assay. IC50 values were calculated by GraphPad Prism 6. FIG. 9B: Murine BRAF^V600E YUMM1.7 melanoma cells and BRAF^WT B16F10 melanoma cells were treated with increasing doses of AP±1 mM DFMO or with PLX4720. After 72 hours of culture, cell survival was determined via EZQuant™ Cell Quantifying assay. IC50 values were calculated by GraphPad Prism 6. […] Cells were washed with cold PBS containing 50 μM spermidine, and cell lysates were assayed for CPM ^3H-spermidine per mg protein by scintillation counting.
as §1

[3] = tested on: B16F10-sTAC melanoma tumors; assay: B16F10-sTAC melanoma tumor model; conditions: for polyamine levels in tumors (HPLC): FIG. 1D, compared with vehicle-treated mice; for cytokine levels in tumors: FIG. 3, compared to vehicle treated mice; for B16F10-sTAC tumor growth compared to vehicle: Trimer PTI 3 mg/kg i.p. daily and/or 0.25% DFMO in drinking water
Procedure: FIG. 1A: Mice were subcutaneously injected with 5×10^5 B16F10-sTAC melanoma cells. When tumors were 50-100 mm^3 in size, treatment was initiated with either saline, 0.25% DFMO (w/v) in the drinking water, Trimer PTI (i.p., 3 mg/kg, once a day) or both DFMO and Trimer PTI. […] FIG. 1B: Upon sacrifice, tumors were excised and weighed (mean±SEM). FIG. 1C: Spleen weight was determined upon sacrifice (mean±SEM). FIG. 1D: Polyamine levels were determined in tumors by HPLC and normalized to DNA levels in the tissue extracts (nmol/mg DNA). […] Trimer PTI levels were determined in tumor and skin supernatants by mass spectrometry and normalized to tissue protein concentration (nmol/mg protein). n=5-10 mice per group; *=p≤0.05 and #=p≤0.01 compared to vehicle-treated mice.
Tumor models were established by subcutaneous injections of 5×10^5 B16F10-sTAC cells in C57B16 mice or 5×10^5 CT26.CL25 cells in Balb/c mice. Mice were monitored twice a week for tumor growth. Treatment with 0.25% (w/v) DFMO in the drinking water and the Trimer PTI (3 mg/kg daily by intraperitoneal injection) was initiated when tumors were palpable (50-100 mm^3). For adoptive transfers, spleens were excised and pressed through a nylon filter to obtain a single cell suspension. The resulting suspension was incubated with red cell lysis buffer for 5 minutes to lyse red blood cells. Gr1^+ cells were stained with a PE conjugated antibody and then isolated using anti-PE microbeads (Miltenyi Biotec) as per the manufacturer's instructions. Gr1^+ positive cells were injected into the retro-orbital cavity. Tumor growth was assessed morphometrically using calipers, and tumor volumes were calculated using the formula V (mm^3)=π/6×A×B^2 (A is the larger diameter and B is the smaller diameter).
Upon sacrifice, splenocytes from B16F10-sTAC tumor bearing mice and tumor cell suspensions from CT26.CL25 tumor bearing mice were analyzed for IFN-γ producing cells by enzyme-linked immunosorbent spot (ELISpot) assay. Multiscreen filtration plates (Millipore) were coated with 0.5 μg/mL of purified anti-mouse IFN-γ capture antibody (Biolegend) overnight at 4° C. Single-cell suspensions of splenocytes or tumors were plated at 1×10^6 and 5×10^5 per well respectively. For ELISpot assays with splenocytes from B16F10-sTAC tumor bearing mice, cells were stimulated with the […] (SEQ ID NO: 1) peptide (Anaspec) at […]. […] After 16 hours of stimulation at 37° C., the cells were removed by washing and spots were developed with a biotinylated anti-IFN-γ detection antibody and streptavidin-horseradish peroxidase conjugate followed by NITRO-blue tetrazolium chloride and 5-bromo-4-chloro-3′-indoylphosphate p-toluidine salt substrate (Sigma). Spot numbers were counted, and data were reported as IFN-γ-spot forming cells per 10^6 cells.
Mouse tumor tissues were fixed in 4% paraformaldehyde in PBS overnight and embedded in paraffin. Sections were deparaffinized, hydrated, and then heated in 0.01 mol/L sodium citrate buffer (pH 6.0) in a steamer for 8 minutes. Sections were incubated with the primary antibody (rat monoclonal anti-mouse F4/80 [BioRad MCA497GA]) for 2 hours at room temperature followed by biotinylated secondary and then an avidin HRP complex (Vectastain Elite ABC KIT, Vector Laboratories, INC). Immunoreactive cells were localized by incubating the sections with diaminobenzidine and peroxide and then counterstaining with hematoxylin. Pictures were obtained using a Zeiss Axiophot microscope (Carl Zeiss Inc.) with a digital color camera and corresponding software.
B16F10-sTAC tumors were flash frozen in liquid nitrogen, ground and homogenized in PBS containing 0.5 μM dithiothreitol, 0.5 μM Pefabloc and 8 μg/mL leupeptin. Samples were analyzed for monocyte chemoattractant protein-1 (MCP-1), interleukin-6 (IL-6).

[4] = tested on: 1205Lu melanoma cells transduced with JARID1B-promoter-EGFP-reporter; assay: JARID1B-promoter-EGFP reporter in spheroids; assay type: cell-based, human; conditions: 2-day exposure, 1205Lu grown as spheroids
Source text: Treatment with a BRAF inhibitor such as PLX4720 enriches a slow-cycling cancer stem cell-like (CSC) subpopulation of melanoma cells that is characterized by stem cell markers including JARID1B and spheroid formation (Roesch, et al. (2010) Cell 141(4):583-594; Roesch, et al. (2013) Cancer Cell 23(6):811-825). It is thought that cancer stem cell populations exist in a hypoxic microenvironment (Schwab, et al. (2012) Breast Cancer Res., 14(1):R6; Mathieu, et al. (2011) Cancer Res., 71(13):4640-4652; Mohyeldin, et al. (2010) Cell Stem Cell, 7(2):150-161). Endogenous ROS levels are increased in slow cycling JARID1B^high melanoma cells as a result of increased mitochondrial respiration and oxidative phosphorylation (Roesch, et al. (2013) Cancer Cell 23(6):811-825). […] Using 1205Lu melanoma cells stably transduced with a JARID1B-promoter-EGFP-reporter construct (Roesch, et al.

[5] = tested on: BRAF-mutant melanoma tumor; assay: BRAF-mutant melanoma tumor in mice treated with PLX4720; assay type: in vivo; conditions: FIG. 11, PLX4720 alone
Procedure: FIG. 11 provides a graph of tumor volume in mice over time after treatment with PLX4720 alone or PLX4720 with delayed administration of AP and DFMO.
In addition to the above, the efficacy of AP in vivo was also tested.

[6] = tested on: BRAF^V600E YUMM1.7 melanoma cells; assay: Cell viability assay (EZQuant), YUMM1.7; assay type: cell-based, murine; conditions: FIG. 9B, 72 h
Procedure: as §2

[7] = tested on: 1205Lu melanoma spheroids; assay: 3D spheroid culture viability (CellTiter-Glo); assay type: cell-based, human; conditions: FIG. 10, 25 μM each drug, 48 h, 3D spheroids on NCPs
Procedure: BRAF^V600E mutant 1205Lu melanoma cells were seeded at 1×10^4 cells in each well of the […] NCPs. When spheroids were formed on day 3, the 3D cultures of spheroids were treated with PLX4720 (25 μM) and/or AP (25 μM). 2D monolayer cultures of 1205Lu melanoma cells were also treated with PLX4720 (25 μM) and/or AP (25 μM). After drug treatment for 48 hours, the viability of spheroids and monolayer cultures was assayed using the CellTiter-Glo Luminescent Cell Viability Assay. The percent cell survival in each treatment group was calculated relative to cells treated with medium only under the same conditions. As controls, the growth of cells without drug treatment under each condition was normalized as 100% separately. The means are presented±SD.
The inorganic nanoscale scaffolding NanoCulture plates (NCP) were purchased from SCIVAX. The base of each NCP is constructed with a transparent cyclo-olefin resinous sheet with a nanoscale indented pattern. To form spheroids, 1205Lu human melanoma cells were seeded in 96-well NCPs at 1×10^4 cells/well in MCDB153 (Sigma)/Leibovitz's L-15 (Cellgro) medium (4:1 ratio) supplemented with 2% heat-inactivated fetal calf serum and 2 mM CaCl2 and incubated in a conventional cell incubator at 37° C. in an atmosphere of 5% CO2 and normal O2 levels. […]

BRAF^WT melanoma cells = conditions: WM3451, WM3743, WM3211; read-out: IC50 (cell viability); cited from earlier work
[8] = tested on: BRAF^V600E melanoma cells; conditions: WM983B, WM3734, 1205Lu, WM989, WM88; read-out: IC50 (cell viability); cited from earlier work
[9] = compared to AMXT1501; cited from earlier work

SMILES | polyamine transport activity after DFMO treatment [1] | polyamine uptake after DFMO treatment ([2]; B16F10 retrovirally expressing BRAF V600E, 1 mM DFMO) | polyamine uptake after DFMO treatment ([2]; FIG. 9C, B16F10 (BRAF WT), 1 mM DFMO 40 h) | PTS activity after DFMO treatment ([2]; FIG. 9C, YUMM1.7 (BRAF V600E), 1 mM DFMO 40 h) | polyamine levels in tumors (HPLC) [3] | cytokine levels in tumors [3] | B16F10-sTAC tumor growth compared to vehicle [3] | enrichment of JARID1B-driven GFP expressing cells [4] [fold] | BRAF-mutant melanoma tumor volume over time [5] | sensitivity to PLX4720 (IC50 compared to B16F10 cells) [6] | cell viability of spheroid cultures [7] | IC50 (BRAF^WT melanoma cells) [µM] | IC50 [8] [µM] | water solubility [9] | spleen weight ([3]; FIG. 1C, Trimer PTI with or without DFMO) | accumulation in tumor compared to non-tumor bearing skin (mass spectrometry) ([3]; FIG. 1E, PBT-treated mice) [fold]
NCCC[C@](N)(C(=O)O)C(F)F [DFMO, α-difluoromethylornithine, reference compound] | dramatically increased polyamine transport activity | enhance polyamine uptake | no significant induction | marked DFMO-induction of PTS activity | reduced the levels of putrescine | did not significantly alter | only modestly reduced | – | – | – | – | – | – | – | – | –
CCCS(=O)(=O)Nc1ccc(F)c(C(=O)c2c[nH]c3ncc(Cl)cc23)c1F [PLX4720, reference compound] | – | – | – | – | – | – | – | 4 | initially quickly regress but then grow back | very sensitive | more resistant | > 3 | ≤ 3 | – | – | –
CNCCCCNCCCCNCc1cc(CNCCCCNCCCCNC)cc(CNCCCCNCCCCNC)c1 [Trimer PTI] | – | – | – | – | no discernible effect | did not significantly alter | only modestly reduced | – | – | – | – | – | – | more water-soluble | no significant effect | 30
